# Assay results as given in US20140349955A1, “USE OF FLUORINE-CONTAINING WATER SOLUBLE PLATINUM COMPLEX IN PREPARING DRUGS FOR PREVENTION AND TREATMENT OF CANCERS” (GUDUI BIOPHARMA TECHNOLOGY INC., priority 2011, published 2014).
# What was measured:
# L1210 tumor cells = experiment: Antitumor efficacy in L1210 tumor-bearing CDF1 mice (increase in life span); type: in vivo
# Experimental: In the following test, antitumor efficacy studies were performed using 8-9 weeks old female CDF1 mice, the average weight of the animal is 20-25 grams. L1210 tumor cells (about 10^5 cells per mouse) were inoculated intraperitoneally. The fluorine-containing water-soluble platinum complexes were used to treat the tumor-bearing animals and the efficacy was compared compared with the clinical platinum antitumor drugs. […] Drugs were administered intraperitoneally on day 1 and day 4 after tumor cell transplantation. The number of experimental animals in each group was 6.
# The experimental animals were purchased from Vital River Laboratory Animal Technology Co. Ltd., Tumor cells L1210-leukemia cells were purchased from Shanghai An Yan Commercial Trade Co. Ltd.
# The increase in life span (ILS) is calculated as follows:
# Wherein, St=the weighted median survival time of treated animals; Su=the weighted median survival time of untreated animals
# DU145 = experiment: Synergistic cytotoxicity test (MTS), DU145; type: cell-based, human; details: 96 h
# Experimental: (§1) Containing 10% bovine fetal serum, 1 mM of sodium pyruvate, 2 mM of L-glutamine, 50 U/mL of penicillin, 50 μg/ mL of streptomycin.
# (§2) Human tumor cells: du145-human prostate cancer; MCF-7-human breast cancer; SK0V3-human ovarian carcinoma, HT-29-human colon cancer; A549-human non-small cell lung cancer (adenocarcinoma), H460-human non-small cell lung cancer (large cell carcinoma), and animal tumor cells: L1210-mice leukemia cells used in the following activity test experiments were all purchased from Shanghai An Yan Commercial Trade Co., Ltd.
# (§3) MTS test method was used in cytotoxicity assay. The tumor cells of logarithmic phase were collected, and then the concentration of cell suspension was adjusted, 100 μL of the cell suspension was added to each well, the cells were placed at 1000-10000 cells/well (edge well filled with sterile PBS). Cells were incubated at 37° C. with 5% CO2 to make cell monolayer overspread the bottom of each well (96-well flat-bottomed microplate). 100 μL of certain concentration solution of a mixture of the fluorine-containing water-soluble platinum complex with other antitumor agents was added to each well. Each condition was measured in five replicates. The microplate was incubated at 37° C. with 5% CO2 for 96 h and checked with inverted microscope. MTS working reagent: To 2 mL of MTS (2 mg/mL, prepared by DPBS) was added 100 μL of PMS (1 mg/mL, prepared by DPBS). The cell culture medium was discarded after centrifugation, the cell culture plate was carefully washed 2-3 times with PBS. Before detecting the absorbance value (OD), to each sample containing well was added 100 μL of cell culture medium, then 20 μL of MTS working reagent was added. After incubation at 37° C. with 5% CO2 for 2 h, the OD (optical density) value was detected at 490 nm.
# (§4) Each of above experiment was repeated five times, and the cell viability was calculated according to the mean OD values.
# (§5) Cell Viability (%)=(treated group OD value/control group OD value)×100
# (§6) Control group: the conditions are the same as the above without adding the tested drug mixture (100 μL of culture medium was added in stead), and finally the absorbance was measured at 490 nm to obtain the OD value of the tumor cells.
# (§7) Drug Group-1: only the fluorine-containing water-soluble platinum complex was added under the above conditions to obtain cell viability of tumor cells.
# (§8) Drug Group-2: only the other chemotherapeutic drug (active ingredient) was added under the above conditions to obtain cell viability of tumor cells.
# (§9) Drug Combination Group: the fluorine-containing water-soluble platinum complex and other chemotherapeutic drugs were added simultaneously under the above conditions to obtain cell viability of tumor cell. (2) Evaluation Method:
# (§10) When the fluorine-containing water-soluble platinum complexes used in combination with other chemotherapy drugs, the inhibition effect on cancer cell proliferation is enhanced or synergistic, and the effect was calculated using the following formula:
# (§11) Combination Effect (%)={[(A1-X)+(A2-X)]/(A1-A2)|}×100
# (§12) wherein, A1 is the cell viability of drug group-1, A2 is the cell viability of drug group-2, X is the cell viability of drug combination group, (A1-A2)| is the absolute value of the cell viability difference between the two groups.
# (§13) Calculated according to the above formula, when the results of [Combination Effect (%)]>+100%, that means the effect of inhibition on cell proliferation is enhanced or synergistic (3) Experimental Result: […]
# MCF7 = experiment: Synergistic cytotoxicity test (MTS), MCF7; type: cell-based, human; details: 96 h
# Experimental: as §1, §2, §3, §4, §5, §6, §7, §8, §9, §10, §11, §12, §13
# SK0V3 = experiment: Synergistic cytotoxicity test (MTS), SKOV3; type: cell-based, human; details: 96 h
# Experimental: as §1, §2, §3, §4, §5, §6, §7, §8, §9, §10, §11, §12, §13
# H460 = experiment: Synergistic cytotoxicity test (MTS), H460; type: cell-based, human; details: 96 h
# Experimental: as §1, §2, §3, §4, §5, §6, §7, §8, §9, §10, §11, §12, §13
# HT29 = experiment: Synergistic cytotoxicity test (MTS), HT29; type: cell-based, human; details: 96 h
# Experimental: as §1, §2, §3, §4, §5, §6, §7, §8, §9, §10, §11, §12, §13
# A549 = experiment: Synergistic cytotoxicity test (MTS), A549; type: cell-based, human; details: 96 h
# Experimental: as §1, §2, §3, §4, §5, §6, §7, §8, §9, §10, §11, §12, §13
# [1] = 1.25 mg/Kg i.p. on day 1 and day 4
# [2] = 2.5 mg/Kg i.p. on day 1 and day 4
# [3] = 5.0 mg/Kg i.p. on day 1 and day 4
# [4] = other chemotherapy drug (at its listed dosage) combined with Complex 2 (dosage: 1 μM)
# [5] = other chemotherapy drug (at its listed dosage) combined with Complex 3 (dosage: 1 μM)
# [6] = other chemotherapy drug (at its listed dosage) combined with Complex 5 (dosage: 1 μM)
# [7] = other chemotherapy drug (at its listed dosage) combined with Complex 6 (dosage: 1 μM)
# [8] = other chemotherapy drug (at its listed dosage) combined with Complex 2 (dosage: 1 μM), SLOV3
# [9] = other chemotherapy drug (at its listed dosage) combined with Complex 3 (dosage: 1 μM), SlOV3
# [10] = other chemotherapy drug (at its listed dosage) combined with Complex 5 (dosage: 1 μM), SLOV3
# [11] = other chemotherapy drug (at its listed dosage) combined with Complex 6 (dosage: 1 μM), SLOV3
# [12] = 50 mg/Kg i.p. on day 1 and day 4
# [13] = 100 mg/Kg i.p. on day 1 and day 4
# [14] = 200 mg/Kg i.p. on day 1 and day 4
SMILES,the effect of drug combination (Combination Effect) (DU145; [4]),the effect of drug combination (Combination Effect) (DU145; [5]),the effect of drug combination (Combination Effect) (DU145; [6]),the effect of drug combination (Combination Effect) (DU145; [7]),the effect of drug combination (Combination Effect) (MCF7; [4]),the effect of drug combination (Combination Effect) (MCF7; [5]),the effect of drug combination (Combination Effect) (MCF7; [6]),the effect of drug combination (Combination Effect) (MCF7; [7]),the effect of drug combination (Combination Effect) (SK0V3; [8]),the effect of drug combination (Combination Effect) (SK0V3; [9]),the effect of drug combination (Combination Effect) (SK0V3; [10]),the effect of drug combination (Combination Effect) (SK0V3; [11]),the effect of drug combination (Combination Effect) (H460; [6]),the effect of drug combination (Combination Effect) (H460; [7]),the effect of drug combination (Combination Effect) (HT29; [4]),the effect of drug combination (Combination Effect) (HT29; [5]),the effect of drug combination (Combination Effect) (HT29; [6]),the effect of drug combination (Combination Effect) (HT29; [7]),the effect of drug combination (Combination Effect) (A549; [4]),the effect of drug combination (Combination Effect) (A549; [5]),other results
N.N.[Cl][Pt][Cl] [Cisplatin],–,–,–,–,–,–,–,–,–,–,–,–,–,–,–,–,–,–,–,–,ILS (%) (L1210 tumor cells; [1]): 36%; Survived Animals on Day 42 (L1210 tumor cells; [1]): 0/6; ILS (%) (L1210 tumor cells; [2]): 100%; Survived Animals on Day 42 (L1210 tumor cells; [2]): 0/6; ILS (%) (L1210 tumor cells; [3]): 236%; Survived Animals on Day 42 (L1210 tumor cells; [3]): 3/6
C#Cc1cccc(Nc2ncnc3cc(OCCOC)c(OCCOC)cc23)c1 [Tarceva],○ (○ represents: 100% < the effect of drug combination < 300%),○ (○ represents: 100% < the effect of drug combination < 300%),○ (○ represents: 100% < the effect of drug combination < 300%),○ (○ represents: 100% < the effect of drug combination < 300%),○ (○ represents: 100% < the effect of drug combination < 300%),○ (○ represents: 100% < the effect of drug combination < 300%),○ (○ represents: 100% < the effect of drug combination < 300%),○ (○ represents: 100% < the effect of drug combination < 300%),○ (○ represents: 100% < the effect of drug combination < 300%),○ (○ represents: 100% < the effect of drug combination < 300%),○ (○ represents: 100% < the effect of drug combination < 300%),○ (○ represents: 100% < the effect of drug combination < 300%),⊚ (⊚ represents the effect of drug combination > 300%),⊚ (⊚ represents the effect of drug combination > 300%),⊚ (⊚ represents the effect of drug combination > 300%),⊚ (⊚ represents the effect of drug combination > 300%),⊚ (⊚ represents the effect of drug combination > 300%),⊚ (⊚ represents the effect of drug combination > 300%),⊚ (⊚ represents the effect of drug combination > 300%),⊚ (⊚ represents the effect of drug combination > 300%),–
N.N.[Cl][Pt+2][Cl] [Transplatin],○ (○ represents: 100% < the effect of drug combination < 300%),○ (○ represents: 100% < the effect of drug combination < 300%),○ (○ represents: 100% < the effect of drug combination < 300%),○ (○ represents: 100% < the effect of drug combination < 300%),⊚ (⊚ represents the effect of drug combination > 300%),⊚ (⊚ represents the effect of drug combination > 300%),⊚ (⊚ represents the effect of drug combination > 300%),⊚ (⊚ represents the effect of drug combination > 300%),○ (○ represents: 100% < the effect of drug combination < 300%),○ (○ represents: 100% < the effect of drug combination < 300%),○ (○ represents: 100% < the effect of drug combination < 300%),○ (○ represents: 100% < the effect of drug combination < 300%),⊚ (⊚ represents the effect of drug combination > 300%),⊚ (⊚ represents the effect of drug combination > 300%),⊚ (⊚ represents the effect of drug combination > 300%),⊚ (⊚ represents the effect of drug combination > 300%),⊚ (⊚ represents the effect of drug combination > 300%),⊚ (⊚ represents the effect of drug combination > 300%),⊚ (⊚ represents the effect of drug combination > 300%),⊚ (⊚ represents the effect of drug combination > 300%),–
[NH2][Pt]1([NH2])[O]C(=O)C(F)(CCCOC2OC(CO)C(O)C(O)C2O)C(=O)[O]1 (stereo not shown) [Complex 15],–,–,–,–,–,–,–,–,–,–,–,–,–,–,–,–,–,–,–,–,"ILS (%) (L1210 tumor cells; [12]): >380%; Survived Animals on Day 42 (L1210 tumor cells; [12]): 6/6; Weight Changes (g) (L1210 tumor cells; 50 mg/Kg i.p. on day 1 and day 4, weight changes from the first day to the seventh day): +1.0 g; ILS (%) (L1210 tumor cells; [13]): >380%; Survived Animals on Day 42 (L1210 tumor cells; [13]): 6/6; Weight Changes (L1210 tumor cells; 100 mg/Kg i.p. on day 1 and day 4, weight changes from the first day to the seventh day): -0.3 g; ILS (%) (L1210 tumor cells; [14]): >380%; Survived Animals on Day 42 (L1210 tumor cells; [14]): 6/6; Weight Changes (L1210 tumor cells; 200 mg/Kg i.p. on day 1 and day 4, weight changes from the first day to the seventh day): -0.8 g"
